Data on two molecules can be found in ChEMBL document CHEMBL2331488, “Biotransformation of LASSBio-579 and pharmacological evaluation of p-hydroxylated metabolite a N-phenylpiperazine antipsychotic lead compound” (Eur J Med Chem, 2013).

Data set [1] has as its target T1, 5-hydroxytryptamine receptor 2C (Homo sapiens, UniProt P28335).
T1 sequence (P28335 whole entry): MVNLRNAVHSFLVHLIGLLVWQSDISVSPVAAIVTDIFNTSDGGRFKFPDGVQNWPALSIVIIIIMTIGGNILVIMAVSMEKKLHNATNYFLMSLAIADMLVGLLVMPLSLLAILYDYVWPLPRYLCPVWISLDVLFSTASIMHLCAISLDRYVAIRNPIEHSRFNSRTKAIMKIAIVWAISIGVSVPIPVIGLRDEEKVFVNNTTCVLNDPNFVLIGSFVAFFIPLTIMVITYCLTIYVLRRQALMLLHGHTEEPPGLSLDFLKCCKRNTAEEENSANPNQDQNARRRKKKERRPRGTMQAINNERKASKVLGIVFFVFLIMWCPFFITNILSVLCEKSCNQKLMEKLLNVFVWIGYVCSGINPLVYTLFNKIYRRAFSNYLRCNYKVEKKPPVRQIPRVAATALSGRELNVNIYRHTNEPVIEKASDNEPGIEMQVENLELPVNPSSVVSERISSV
Description: Displacement of [3H]-mesulergine from human 5HT2C receptor after 60 mins by liquid scintillation counting. (In a radioligand displacement assay an active substance lowers the binding of a labelled ligand.)

The target in data set [2] is T2, 5-hydroxytryptamine receptor 1A (Rattus norvegicus, UniProt P19327).
T2 sequence (P19327 whole entry): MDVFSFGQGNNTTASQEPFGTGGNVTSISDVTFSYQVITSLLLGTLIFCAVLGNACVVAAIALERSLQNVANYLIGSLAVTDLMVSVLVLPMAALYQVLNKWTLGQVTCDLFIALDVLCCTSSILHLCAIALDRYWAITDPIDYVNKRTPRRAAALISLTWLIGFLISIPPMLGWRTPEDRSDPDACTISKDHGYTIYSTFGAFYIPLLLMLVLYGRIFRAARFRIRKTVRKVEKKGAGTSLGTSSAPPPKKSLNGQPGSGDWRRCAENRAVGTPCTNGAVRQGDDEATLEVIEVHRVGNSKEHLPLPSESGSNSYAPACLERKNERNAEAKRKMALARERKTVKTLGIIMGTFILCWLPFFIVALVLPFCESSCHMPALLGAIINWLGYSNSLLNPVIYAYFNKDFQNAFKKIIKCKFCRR
Description: Displacement of [3H]-OH-8-DPAT from 5HT1A receptor in Wistar rat hippocampal membrane after 15 mins by liquid scintillation counting. It counts as cell membranes, Hippocampus.

The target of data set [3] is T3, Alpha-1B adrenergic receptor (Rattus norvegicus, UniProt P15823).
T3 sequence (P15823 whole entry): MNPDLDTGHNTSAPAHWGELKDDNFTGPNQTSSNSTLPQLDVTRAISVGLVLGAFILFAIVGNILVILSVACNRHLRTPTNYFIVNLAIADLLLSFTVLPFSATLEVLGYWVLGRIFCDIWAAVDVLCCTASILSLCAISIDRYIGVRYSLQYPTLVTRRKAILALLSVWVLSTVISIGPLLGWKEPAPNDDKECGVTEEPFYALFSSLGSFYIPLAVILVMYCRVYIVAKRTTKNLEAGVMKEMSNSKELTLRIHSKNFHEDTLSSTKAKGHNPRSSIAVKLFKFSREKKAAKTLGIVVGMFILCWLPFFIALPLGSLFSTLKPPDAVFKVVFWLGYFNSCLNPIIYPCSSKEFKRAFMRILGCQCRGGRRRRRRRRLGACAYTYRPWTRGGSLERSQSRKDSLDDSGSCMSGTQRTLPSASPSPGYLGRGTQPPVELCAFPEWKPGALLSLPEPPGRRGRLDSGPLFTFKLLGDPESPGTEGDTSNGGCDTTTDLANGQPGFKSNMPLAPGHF
Description: Displacement of [3H]-prazosin from alpha1B adrenergic receptor in Wistar rat liver membrane after 45 mins by liquid scintillation counting. It counts as cell membranes.

Data set [4] concerns the target 5-hydroxytryptamine receptor 2A (Rattus norvegicus, UniProt P14842). Put plainly: Displacement of [3H]-ketanserin from 5HT2A receptor in Wistar rat cortical membrane after 15 mins by liquid scintillation counting. In kind it is cell membranes.
In a further data set the target is T4, D(4) dopamine receptor (Homo sapiens, UniProt P21917).
T4 sequence (P21917 whole entry): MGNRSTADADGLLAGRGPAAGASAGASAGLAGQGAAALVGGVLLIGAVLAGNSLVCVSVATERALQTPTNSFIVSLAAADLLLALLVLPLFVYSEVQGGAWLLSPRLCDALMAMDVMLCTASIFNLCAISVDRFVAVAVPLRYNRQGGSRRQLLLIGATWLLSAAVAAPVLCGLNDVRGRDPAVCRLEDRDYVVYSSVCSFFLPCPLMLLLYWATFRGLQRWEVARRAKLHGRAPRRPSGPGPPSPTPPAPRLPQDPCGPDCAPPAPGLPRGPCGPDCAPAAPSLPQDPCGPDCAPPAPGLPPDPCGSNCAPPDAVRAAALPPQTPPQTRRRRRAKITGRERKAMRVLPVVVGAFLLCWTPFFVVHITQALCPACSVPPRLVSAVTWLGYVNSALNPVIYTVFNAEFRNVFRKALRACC
Description: Displacement of [3H]-YM-09151-2 from human D4 dopamine receptor after 120 mins by liquid scintillation counting.

Another data set deals with D(2) dopamine receptor (Rattus norvegicus, UniProt P61169). Description: Displacement of [3H]-YM-09151-2 from D2 dopamine receptor in Wistar rat brain striatal membrane after 60 mins by liquid scintillation counting. It counts as cell membranes, Striatum.
The target of data set [5] is T5, Alpha-2A adrenergic receptor (Rattus norvegicus, UniProt P22909).
T5 sequence (P22909 whole entry): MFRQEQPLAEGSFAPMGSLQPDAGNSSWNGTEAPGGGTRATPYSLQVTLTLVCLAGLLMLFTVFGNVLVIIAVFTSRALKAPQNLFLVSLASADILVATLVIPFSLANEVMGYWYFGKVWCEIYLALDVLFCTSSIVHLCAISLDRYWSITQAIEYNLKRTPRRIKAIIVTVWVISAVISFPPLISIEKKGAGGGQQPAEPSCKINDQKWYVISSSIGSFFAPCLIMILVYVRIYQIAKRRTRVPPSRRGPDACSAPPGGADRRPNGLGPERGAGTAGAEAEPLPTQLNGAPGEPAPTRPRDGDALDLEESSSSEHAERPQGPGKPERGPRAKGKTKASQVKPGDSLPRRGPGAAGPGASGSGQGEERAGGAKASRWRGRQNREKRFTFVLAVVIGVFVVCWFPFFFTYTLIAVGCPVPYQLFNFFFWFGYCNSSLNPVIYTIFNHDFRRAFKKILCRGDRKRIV
Put plainly: Displacement of [3H]-RX821002 from alpha2A adrenergic receptor in Wistar rat cortical membrane after 45 mins by liquid scintillation counting. It counts as cell membranes.

Data set [6] addresses Muscarinic acetylcholine receptor. Put plainly: Displacement of [3H]-QNB from muscarinic receptor in Wistar rat brain membrane after 60 mins by liquid scintillation counting. It counts as cell membranes.
A further data set deals with Plasma. Put plainly: Drug metabolism in Wistar rat plasma assessed as p-hydroxylated metabolite level at 50 mg/kg, ip after 24 hrs. Also noted: dose 50 mg/kg, route intraperitoneal. In kind it is ADME, organism-based. As to conditions: in vivo; call rule not given here.

5-hydroxytryptamine receptor 2A, sequence (P14842 whole entry): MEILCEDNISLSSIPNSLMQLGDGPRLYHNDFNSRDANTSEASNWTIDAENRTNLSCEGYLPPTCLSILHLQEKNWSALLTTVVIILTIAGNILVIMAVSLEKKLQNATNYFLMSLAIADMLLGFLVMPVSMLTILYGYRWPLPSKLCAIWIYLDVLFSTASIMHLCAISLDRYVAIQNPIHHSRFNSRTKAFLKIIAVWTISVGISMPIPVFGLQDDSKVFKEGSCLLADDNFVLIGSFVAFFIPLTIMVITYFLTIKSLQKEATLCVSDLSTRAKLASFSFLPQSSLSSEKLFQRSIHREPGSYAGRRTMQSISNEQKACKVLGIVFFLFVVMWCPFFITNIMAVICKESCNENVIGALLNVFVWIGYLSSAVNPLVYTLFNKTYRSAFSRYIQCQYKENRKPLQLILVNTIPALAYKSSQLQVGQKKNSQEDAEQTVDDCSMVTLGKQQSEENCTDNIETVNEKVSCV
D(2) dopamine receptor, sequence (P61169 whole entry): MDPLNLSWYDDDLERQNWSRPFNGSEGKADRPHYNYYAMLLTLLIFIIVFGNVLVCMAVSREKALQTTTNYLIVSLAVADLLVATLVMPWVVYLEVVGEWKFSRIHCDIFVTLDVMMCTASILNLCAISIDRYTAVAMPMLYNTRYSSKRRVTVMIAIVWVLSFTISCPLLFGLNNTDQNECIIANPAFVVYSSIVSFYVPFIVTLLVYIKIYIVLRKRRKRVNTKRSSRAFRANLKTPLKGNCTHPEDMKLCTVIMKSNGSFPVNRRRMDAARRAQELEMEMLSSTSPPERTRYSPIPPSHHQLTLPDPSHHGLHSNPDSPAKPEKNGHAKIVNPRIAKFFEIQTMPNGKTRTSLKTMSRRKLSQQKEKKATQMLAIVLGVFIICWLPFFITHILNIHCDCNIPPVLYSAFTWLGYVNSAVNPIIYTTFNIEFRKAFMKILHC

As a reminder, the Ki is a measure of affinity in units of concentration, obtained from inhibition or displacement. As to `Oc1ccc(N2CCN(Cc3cnn(-c4ccc(Cl)cc4)c3)CC2)cc1`, the Ki was 12.3 µM in [1]; 5.87 µM in data set [2]; 1.15 µM in [3]; 8.22 µM in data set [4]; 0.034 µM at D(4) dopamine receptor; 0.53 µM at D(2) dopamine receptor. The Ki in [5] is 6.45 µM; in data set [6], over 30 µM.
On to `Clc1ccc(-n2cc(CN3CCN(c4ccccc4)CC3)cn2)cc1`, for which the Ki in data set [1] was 8.44 µM; in data set [2], 0.21 µM; in data set [3] it was 3 µM; in [4], 6.82 µM; at D(4) dopamine receptor, 0.17 µM; on D(2) dopamine receptor, 0.38 µM. The Ki in [5] is 2.49 µM; in data set [6], over 30 µM. The Drug metabolism entry with Plasma is reported as “Active”.
